# Data from ChEMBL document CHEMBL5696441 (Nat Chem Biol, 2011).
# Tests used:
# [1] = molecular target: Activin receptor type-2A (Homo sapiens) (UniProt P27037); assay: Inhibition of ACVR2A (unknown origin) assessed as remaining activity at 1 uM by Kinome scan method relative to control
# [2] = molecular target: Cyclin-dependent kinase 3 (Homo sapiens) (UniProt Q00526); assay: Inhibition of CDK3 (unknown origin) assessed as remaining activity at 1 uM by Kinome scan method relative to control
# [3] = molecular target: Casein kinase I isoform delta (Homo sapiens) (UniProt P48730); assay: Inhibition of CSNK1D (unknown origin) assessed as remaining activity at 1 uM by Kinome scan method relative to control
# [4] = molecular target: Hormonally up-regulated neu tumor-associated kinase (Homo sapiens) (UniProt P57058); assay: Inhibition of HUNK (unknown origin) assessed as remaining activity at 1 uM by Kinome scan method relative to control
# Sequence of Hormonally up-regulated neu tumor-associated kinase (Homo sapiens) (P57058 whole entry): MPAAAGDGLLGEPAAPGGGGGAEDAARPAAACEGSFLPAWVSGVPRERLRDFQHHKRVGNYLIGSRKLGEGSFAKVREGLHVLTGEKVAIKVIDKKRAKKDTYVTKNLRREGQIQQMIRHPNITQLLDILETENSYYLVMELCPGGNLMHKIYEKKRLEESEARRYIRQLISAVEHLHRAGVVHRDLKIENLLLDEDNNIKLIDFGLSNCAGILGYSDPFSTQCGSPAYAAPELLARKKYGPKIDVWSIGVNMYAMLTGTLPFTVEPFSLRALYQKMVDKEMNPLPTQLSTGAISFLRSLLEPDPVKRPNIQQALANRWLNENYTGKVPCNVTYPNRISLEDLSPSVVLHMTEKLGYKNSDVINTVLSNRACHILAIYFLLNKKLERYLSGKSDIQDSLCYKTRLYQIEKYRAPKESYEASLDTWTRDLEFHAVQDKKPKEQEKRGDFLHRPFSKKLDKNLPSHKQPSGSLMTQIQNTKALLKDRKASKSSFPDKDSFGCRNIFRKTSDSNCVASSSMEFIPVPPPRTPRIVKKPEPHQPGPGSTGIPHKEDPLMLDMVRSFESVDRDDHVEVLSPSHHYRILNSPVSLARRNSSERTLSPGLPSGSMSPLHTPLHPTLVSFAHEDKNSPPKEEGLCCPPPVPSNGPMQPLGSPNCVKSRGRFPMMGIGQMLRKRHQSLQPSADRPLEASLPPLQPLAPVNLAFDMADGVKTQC
# [5] = molecular target: Mitogen-activated protein kinase kinase kinase 4 (Homo sapiens) (UniProt Q9Y6R4); assay: Inhibition of MAP3K4 (unknown origin) assessed as remaining activity at 1 uM by Kinome scan method relative to control
# [6] = molecular target: Mitogen-activated protein kinase kinase kinase 10 (Homo sapiens) (UniProt Q02779); assay: Inhibition of MLK2 (unknown origin) assessed as remaining activity at 1 uM by Kinome scan method relative to control
# Sequence of Mitogen-activated protein kinase kinase kinase 10 (Homo sapiens) (Q02779 whole entry, looked up, canonical isoform): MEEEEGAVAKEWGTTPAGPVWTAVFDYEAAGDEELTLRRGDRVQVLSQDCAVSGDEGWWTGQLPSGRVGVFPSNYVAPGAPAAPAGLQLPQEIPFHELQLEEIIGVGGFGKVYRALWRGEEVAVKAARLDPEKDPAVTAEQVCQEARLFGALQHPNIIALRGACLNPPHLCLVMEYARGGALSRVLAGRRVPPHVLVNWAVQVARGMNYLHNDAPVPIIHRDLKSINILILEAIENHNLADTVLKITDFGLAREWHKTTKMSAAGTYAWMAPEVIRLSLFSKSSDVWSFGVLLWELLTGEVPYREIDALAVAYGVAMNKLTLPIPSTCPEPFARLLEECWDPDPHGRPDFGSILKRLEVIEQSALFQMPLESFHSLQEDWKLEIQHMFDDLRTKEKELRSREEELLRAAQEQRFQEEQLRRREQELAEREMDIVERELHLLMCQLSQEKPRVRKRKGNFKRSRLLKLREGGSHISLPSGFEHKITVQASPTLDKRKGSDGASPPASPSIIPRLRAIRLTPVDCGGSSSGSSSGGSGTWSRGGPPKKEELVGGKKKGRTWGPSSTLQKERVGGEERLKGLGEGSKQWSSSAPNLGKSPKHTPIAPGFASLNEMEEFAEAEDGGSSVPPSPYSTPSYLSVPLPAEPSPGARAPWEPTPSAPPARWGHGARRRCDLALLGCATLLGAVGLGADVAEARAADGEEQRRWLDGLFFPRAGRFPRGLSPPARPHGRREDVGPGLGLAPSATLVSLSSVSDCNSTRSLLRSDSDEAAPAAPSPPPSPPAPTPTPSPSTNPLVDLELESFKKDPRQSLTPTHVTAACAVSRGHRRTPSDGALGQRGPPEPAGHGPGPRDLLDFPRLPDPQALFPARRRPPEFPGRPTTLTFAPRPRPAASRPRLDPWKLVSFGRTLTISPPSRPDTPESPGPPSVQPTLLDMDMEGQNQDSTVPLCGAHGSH
# [7] = molecular target: Phosphatidylinositol 4,5-bisphosphate 3-kinase catalytic subunit beta isoform (Homo sapiens) (UniProt P42338); assay: Inhibition of PIK3CB (unknown origin) assessed as remaining activity at 1 uM by Kinome scan method relative to control
# [8] = molecular target: Receptor-interacting serine/threonine-protein kinase 4 (Homo sapiens) (UniProt P57078); assay: Inhibition of RIPK4 (unknown origin) assessed as remaining activity at 1 uM by Kinome scan method relative to control
# Sequence of Receptor-interacting serine/threonine-protein kinase 4 (Homo sapiens) (P57078 whole entry): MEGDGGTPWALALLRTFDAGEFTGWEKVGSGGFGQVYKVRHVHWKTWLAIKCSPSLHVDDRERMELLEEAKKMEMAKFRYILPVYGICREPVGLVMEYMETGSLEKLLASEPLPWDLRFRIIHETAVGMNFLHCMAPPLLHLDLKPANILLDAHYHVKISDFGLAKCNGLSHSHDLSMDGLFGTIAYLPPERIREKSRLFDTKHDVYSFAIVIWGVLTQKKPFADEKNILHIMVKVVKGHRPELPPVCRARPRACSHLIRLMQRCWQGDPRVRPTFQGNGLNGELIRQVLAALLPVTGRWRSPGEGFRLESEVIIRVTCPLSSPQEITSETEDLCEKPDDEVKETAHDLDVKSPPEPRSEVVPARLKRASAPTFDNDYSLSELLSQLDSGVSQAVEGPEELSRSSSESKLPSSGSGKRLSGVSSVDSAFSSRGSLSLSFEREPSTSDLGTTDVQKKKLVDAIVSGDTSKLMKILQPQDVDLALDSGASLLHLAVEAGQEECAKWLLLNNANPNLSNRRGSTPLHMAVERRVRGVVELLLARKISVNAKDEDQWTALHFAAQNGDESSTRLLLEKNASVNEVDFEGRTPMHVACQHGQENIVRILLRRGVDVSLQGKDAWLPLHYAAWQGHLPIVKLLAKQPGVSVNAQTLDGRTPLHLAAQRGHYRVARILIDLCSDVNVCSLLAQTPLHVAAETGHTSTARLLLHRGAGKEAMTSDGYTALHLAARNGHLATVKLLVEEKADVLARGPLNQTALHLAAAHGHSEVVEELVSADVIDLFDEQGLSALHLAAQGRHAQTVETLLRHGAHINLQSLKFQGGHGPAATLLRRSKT
# [9] = molecular target: STE20/SPS1-related proline-alanine-rich protein kinase (Homo sapiens) (UniProt Q9UEW8); assay: Inhibition of STK39 (unknown origin) assessed as remaining activity at 1 uM by Kinome scan method relative to control
# [10] = molecular target: T1, Testis-specific serine/threonine-protein kinase 1 (Homo sapiens) (UniProt Q9BXA7); assay: Inhibition of TSSK1B (unknown origin) assessed as remaining activity at 1 uM by Kinome scan method relative to control
# T1 sequence (whole entry): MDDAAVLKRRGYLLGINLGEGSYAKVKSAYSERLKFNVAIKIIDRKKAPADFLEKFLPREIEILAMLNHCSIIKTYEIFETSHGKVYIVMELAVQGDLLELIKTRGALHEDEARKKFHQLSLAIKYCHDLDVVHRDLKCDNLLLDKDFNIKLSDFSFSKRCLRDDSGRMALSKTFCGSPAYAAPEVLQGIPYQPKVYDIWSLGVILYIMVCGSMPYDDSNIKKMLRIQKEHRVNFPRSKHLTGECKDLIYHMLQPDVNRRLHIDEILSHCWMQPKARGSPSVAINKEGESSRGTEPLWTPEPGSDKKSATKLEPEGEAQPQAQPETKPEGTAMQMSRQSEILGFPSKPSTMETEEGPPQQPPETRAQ
# [11] = molecular target: Non-receptor tyrosine-protein kinase TYK2 (Homo sapiens) (UniProt P29597); assay: Inhibition of TYK2 JH1 domain (unknown origin) assessed as remaining activity at 1 uM by Kinome scan method relative to control
# Sequence of Non-receptor tyrosine-protein kinase TYK2 (Homo sapiens) (P29597 whole entry, the tested form may be a part): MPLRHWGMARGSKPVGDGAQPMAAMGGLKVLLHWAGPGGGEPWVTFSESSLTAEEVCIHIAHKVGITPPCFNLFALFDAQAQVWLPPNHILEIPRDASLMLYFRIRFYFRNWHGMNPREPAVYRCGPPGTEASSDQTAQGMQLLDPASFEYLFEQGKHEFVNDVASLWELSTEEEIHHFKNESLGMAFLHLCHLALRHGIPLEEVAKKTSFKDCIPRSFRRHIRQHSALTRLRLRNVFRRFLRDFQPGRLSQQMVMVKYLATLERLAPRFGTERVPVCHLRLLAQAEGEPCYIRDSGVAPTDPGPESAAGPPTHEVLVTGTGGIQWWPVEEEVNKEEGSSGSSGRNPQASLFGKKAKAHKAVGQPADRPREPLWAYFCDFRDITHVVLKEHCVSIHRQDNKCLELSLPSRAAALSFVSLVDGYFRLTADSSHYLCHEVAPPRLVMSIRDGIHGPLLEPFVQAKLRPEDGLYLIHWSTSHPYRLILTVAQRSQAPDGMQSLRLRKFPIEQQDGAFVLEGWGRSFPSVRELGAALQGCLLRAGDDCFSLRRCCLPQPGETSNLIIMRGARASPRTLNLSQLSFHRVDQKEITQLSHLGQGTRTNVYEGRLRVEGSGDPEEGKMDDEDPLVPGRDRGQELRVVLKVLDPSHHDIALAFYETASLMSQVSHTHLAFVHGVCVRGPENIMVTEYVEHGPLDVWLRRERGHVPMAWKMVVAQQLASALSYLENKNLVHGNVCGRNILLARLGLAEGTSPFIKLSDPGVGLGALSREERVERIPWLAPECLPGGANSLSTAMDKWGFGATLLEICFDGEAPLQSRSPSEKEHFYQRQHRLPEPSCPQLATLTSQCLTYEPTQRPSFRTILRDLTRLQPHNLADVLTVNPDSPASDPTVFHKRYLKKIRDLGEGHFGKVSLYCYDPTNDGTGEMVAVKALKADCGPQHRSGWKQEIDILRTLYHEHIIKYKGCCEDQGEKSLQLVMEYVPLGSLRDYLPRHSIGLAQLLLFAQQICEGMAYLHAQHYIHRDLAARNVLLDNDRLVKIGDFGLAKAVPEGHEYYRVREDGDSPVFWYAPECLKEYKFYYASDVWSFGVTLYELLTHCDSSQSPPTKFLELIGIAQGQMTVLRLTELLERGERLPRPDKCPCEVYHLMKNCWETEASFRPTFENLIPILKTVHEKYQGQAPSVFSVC
# [12] = molecular target: Serine/threonine-protein kinase 32B (Homo sapiens) (UniProt Q9NY57); assay: Inhibition of YANK2 (unknown origin) assessed as remaining activity at 1 uM by Kinome scan method relative to control
# Sequence of Serine/threonine-protein kinase 32B (Homo sapiens) (Q9NY57 whole entry): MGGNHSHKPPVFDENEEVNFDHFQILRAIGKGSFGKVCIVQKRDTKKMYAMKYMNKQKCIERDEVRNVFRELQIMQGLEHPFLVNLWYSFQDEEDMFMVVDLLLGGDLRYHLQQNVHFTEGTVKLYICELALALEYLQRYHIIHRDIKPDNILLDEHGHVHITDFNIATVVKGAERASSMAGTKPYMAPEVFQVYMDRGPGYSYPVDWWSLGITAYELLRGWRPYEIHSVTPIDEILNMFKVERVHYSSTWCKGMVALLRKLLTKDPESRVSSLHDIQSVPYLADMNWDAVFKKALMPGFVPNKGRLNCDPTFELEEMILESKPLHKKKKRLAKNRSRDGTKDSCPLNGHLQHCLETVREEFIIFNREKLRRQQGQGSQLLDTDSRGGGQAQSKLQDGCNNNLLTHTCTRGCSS
# [13] = molecular target: Mitogen-activated protein kinase kinase kinase 5 (Homo sapiens) (UniProt Q99683); assay: Inhibition of ASK1 (unknown origin) assessed as remaining activity at 1 uM by Kinome scan method relative to control
# [14] = molecular target: Dual specificity protein kinase CLK1 (Homo sapiens) (UniProt P49759); assay: Inhibition of CLK1 (unknown origin) assessed as remaining activity at 1 uM by Kinome scan method relative to control
# [15] = molecular target: Macrophage colony-stimulating factor 1 receptor (Homo sapiens) (UniProt P07333); assay: Inhibition of CSF1R (unknown origin) assessed as remaining activity at 1 uM by Kinome scan method relative to control
# [16] = test system: Epidermal growth factor receptor (Homo sapiens), P00533 [G719C]; assay: Inhibition of EGFR G719C mutant (unknown origin) assessed as remaining activity at 1 uM by Kinome scan method relative to control
# [17] = molecular target: Homeodomain-interacting protein kinase 2 (Homo sapiens) (UniProt Q9H2X6); assay: Inhibition of HIPK2 (unknown origin) assessed as remaining activity at 1 uM by Kinome scan method relative to control
# [18] = test system: Tyrosine-protein kinase ABL1 (Homo sapiens), P00519 [Y253F]; assay: Inhibition of human ABL1 Y253F mutant assessed as residual activity at 1 uM using Poly(Ala,Glu,Lys,Tyr)6:2:5:1 as substrate in presence of 33P-ATP by ProQinase assay relative to control
# [19] = molecular target: Ephrin type-B receptor 1 (Homo sapiens) (UniProt P54762); assay: Inhibition of human EPHB1 assessed as residual activity at 1 uM using polyEY as substrate in presence of 33P-ATP by ProQinase assay relative to control
# [20] = test system: Platelet-derived growth factor receptor alpha (Homo sapiens), P16234 [V561D]; assay: Inhibition of human PDGFRalpha V561D mutant assessed as residual activity at 1 uM using PolyEY as substrate in presence of 33P-ATP by ProQinase assay relative to control
# [21] = molecular target: Serine/threonine-protein kinase pim-3 (Homo sapiens) (UniProt Q86V86); assay: Inhibition of human PIM3 assessed as residual activity at 1 uM using RBER-GSK3(14-27) as substrate in presence of 33P-ATP by ProQinase assay relative to control
# [22] = test system: Proto-oncogene tyrosine-protein kinase receptor Ret (Homo sapiens), P07949 [V804L]; assay: Inhibition of human RET V804L mutant assessed as residual activity at 1 uM using polyEY as substrate in presence of 33P-ATP by ProQinase assay relative to control
# [23] = molecular target: Rho-associated protein kinase 1 (Homo sapiens) (UniProt Q13464); assay: Inhibition of human ROCK1 assessed as residual activity at 1 uM using 3xChocktide-PKC(19-31) as substrate in presence of 33P-ATP by ProQinase assay relative to control
# [24] = molecular target: NT-3 growth factor receptor (Homo sapiens) (UniProt Q16288); assay: Inhibition of human TRKC assessed as residual activity at 1 uM using polyEy as substrate in presence of 33P-ATP by ProQinase assay relative to control
# [25] = molecular target: Non-receptor tyrosine-protein kinase TYK2 (Homo sapiens) (UniProt P29597); assay: Inhibition of human TYK2 assessed as residual activity at 1 uM using poly(Ala,Glu,Lys,Tyr)6:2:5:1 as substrate in presence of 33P-ATP by ProQinase assay relative to control
# [26] = Anti-inflammatory activity against human derived high respond PBMC cells assessed as inhibition in stimulated IL-4 cytokine release incubated for 2 hrs in the presence of LPS/SEB/aCD28 by Luminex based sandwich immunoassay; type: functional, cell-based
# Sequence of Activin receptor type-2A (Homo sapiens) (P27037 whole entry): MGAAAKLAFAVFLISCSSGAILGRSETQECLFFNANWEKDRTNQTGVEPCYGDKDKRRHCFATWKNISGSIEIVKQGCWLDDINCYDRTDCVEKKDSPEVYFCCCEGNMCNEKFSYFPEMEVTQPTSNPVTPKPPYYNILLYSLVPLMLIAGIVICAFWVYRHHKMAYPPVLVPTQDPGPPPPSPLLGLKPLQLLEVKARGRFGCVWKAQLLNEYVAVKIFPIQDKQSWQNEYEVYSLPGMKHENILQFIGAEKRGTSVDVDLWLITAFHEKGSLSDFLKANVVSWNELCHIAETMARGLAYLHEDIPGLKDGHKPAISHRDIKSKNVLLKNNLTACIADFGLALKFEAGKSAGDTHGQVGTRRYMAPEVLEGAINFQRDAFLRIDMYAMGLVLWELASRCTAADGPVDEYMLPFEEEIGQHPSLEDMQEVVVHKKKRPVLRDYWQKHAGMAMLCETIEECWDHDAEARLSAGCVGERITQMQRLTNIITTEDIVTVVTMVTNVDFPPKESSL
# Sequence of Cyclin-dependent kinase 3 (Homo sapiens) (Q00526 whole entry, looked up, canonical isoform): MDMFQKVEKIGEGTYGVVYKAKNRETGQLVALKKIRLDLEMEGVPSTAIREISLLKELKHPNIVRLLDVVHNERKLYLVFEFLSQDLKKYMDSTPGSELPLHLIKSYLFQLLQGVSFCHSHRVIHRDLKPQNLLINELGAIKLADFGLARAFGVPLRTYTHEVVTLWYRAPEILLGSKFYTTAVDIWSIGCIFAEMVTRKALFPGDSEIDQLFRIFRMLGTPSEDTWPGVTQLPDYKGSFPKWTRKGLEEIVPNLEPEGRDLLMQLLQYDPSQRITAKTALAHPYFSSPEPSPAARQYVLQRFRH
SMILES,Activity [1],Activity [2],Activity [3],Activity [4],Activity [5],Activity [6],Activity [7],Activity [8],Activity [9],Activity [10],Activity [11],Activity [12],also measured
Nc1ccccc1Nc1ccc2c(c1)CCc1ccccc1C2=O,96%,85%,98%,91%,82%,92%,88%,80%,77%,95%,83%,89%,–
O=C1c2ccc(Nc3ccc(F)cc3F)cc2CCc2ccc(OC[C@H](O)CO)cc21 [Skepinone-L],95%,96%,100%,96%,85%,85%,96%,90%,93%,84%,58%,98%,Activity [13]: 93%; Activity [14]: 99%; Activity [15]: 92%; Activity [16]: 81%; Activity [17]: 100%; Activity [18]: 88%; Activity [19]: 116%; Activity [20]: 91%; Activity [21]: 78%; Activity [22]: 115%; Activity [23]: 97%; Activity [24]: 120%; Activity [25]: 96%; IC50 [26]: Not Active
